Test results from article PMC4522399 (Journal of pharmaceutical sciences, 2015).

Assays:
human NTCP = molecular target: T1, human NTCP (Homo sapiens, UniProt Q14973); conditions: native substrate, comparison value; cited from earlier work
T1 sequence (Q14973 1-349): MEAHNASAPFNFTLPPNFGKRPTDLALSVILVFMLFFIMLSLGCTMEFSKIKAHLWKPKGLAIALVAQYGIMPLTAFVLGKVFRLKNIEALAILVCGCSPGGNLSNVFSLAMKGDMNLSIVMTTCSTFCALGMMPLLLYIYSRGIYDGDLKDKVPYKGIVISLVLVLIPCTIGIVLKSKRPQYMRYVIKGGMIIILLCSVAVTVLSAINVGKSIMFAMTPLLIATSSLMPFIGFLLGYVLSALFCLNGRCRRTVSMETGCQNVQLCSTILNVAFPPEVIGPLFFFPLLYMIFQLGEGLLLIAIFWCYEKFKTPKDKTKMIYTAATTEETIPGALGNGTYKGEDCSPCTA

in vivo = conditions: male, Balb/c, mouse, iv, 0.08 mmol/kg

| Compound | Kt (human NTCP) [µM] | Tmax (in vivo) [min] |
| --- | --- | --- |
| C[C@H](CCC(=O)NCCS(=O)(=O)O)[C@H]1CC[C@H]2[C@@H]3[C@H](O)C[C@@H]4C[C@H](O)CC[C@]4(C)[C@H]3C[C@H](O)[C@]12C [taurocholate] | 22.7 |  |
| NC(=O)c1ncn([C@@H]2O[C@H](CO)[C@@H](O)[C@H]2O)n1 [ribavirin, Ribavirin] |  | 30 |
